Results from PMC8330190 (Signal Transduction and Targeted Therapy, 2021).

Test system: SARS-CoV-2 HR1 target mimic peptide HR1P
Assay type: binding

Row | SMILES | Tm of complex with HR1P (binding stability)
1 | CC[C@H](C)[C@H](NC(=O)[C@H](Cc1ccc(O)cc1)NC(=O)[C@H](CO)NC(=O)[C@H](CCC(=O)O)NC(=O)[C@H](CC(N)=O)NC(=O)[C@H](CC(C)C)NC(=O)[C@H](C)NC(=O)[C@H](CCCCN)NC(=O)[C@@H](NC(=O)[C@@H](NC(=O)[C@H](CCC(N)=O)NC(=O)[C@H](CCC(N)=O)NC(=O)[C@H](CC(C)C)NC(=O)[C@H](CO)NC(=O)[C@H](CC(C)C)NC(=O)[C@H](CCSC)NC(=O)[C@H](CCC(=O)O)NC(=O)[C@H](Cc1ccc(O)cc1)NC(=O)[C@@H](NC(=O)[C@H](CC(C)C)NC(=O)[C@H](CC(=O)O)NC(=O)[C@H](CC(C)C)NC(=O)[C@H](CC(C)C)NC(=O)[C@@H](NC(=O)[C@@H](NC(=O)[C@H](CC(N)=O)NC(=O)[C@@H](NC(=O)[C@H](CCC(N)=O)NC(=O)[C@@H](NC(=O)[C@H](CC(C)C)NC(=O)[C@H](CO)NC(C)=O)[C@@H](C)O)[C@@H](C)CC)[C@@H](C)O)[C@@H](C)O)[C@@H](C)O)C(C)C)C(C)C)C(=O)N[C@@H](CC(=O)O)C(=O)N[C@@H](CC(C)C)C(=O)N[C@@H](CCCCN)C(=O)N[C@@H](CCC(=O)O)C(=O)N[C@@H](CC(C)C)C(=O)NCCOCCOCCOCCOCCOCCOCCOCCOCCC(=O)N[C@@H](CCCCNC(=O)CCC(=O)O[C@H]1CC[C@@]2(C)C(=CC[C@H]3[C@@H]4CC[C@H]([C@H](C)CCCC(C)C)[C@@]4(C)CC[C@@H]32)C1)C(N)=O [MERS-LP] | 47 °C
2 | CC[C@H](C)[C@H](NC(=O)[C@H](C)NC(=O)[C@H](CCC(=O)O)NC(=O)[C@H](CCC(N)=O)NC(=O)[C@H](CC(C)C)NC(=O)[C@H](CCCNC(=N)N)NC(=O)[C@H](CC(N)=O)NC(=O)[C@H](CCSC)NC(=O)[C@H](CCC(=O)O)NC(=O)[C@H](CC(=O)O)NC(=O)[C@H](CCC(N)=O)NC(=O)[C@H](CC(C)C)NC(=O)[C@H](CC(=O)O)NC(=O)[C@H](CC(C)C)NC(=O)[C@H](Cc1ccccc1)NC(=O)[C@@H](NC(=O)[C@@H](NC(=O)[C@H](CC(N)=O)NC(=O)[C@@H](NC(=O)[C@H](Cc1ccc(O)cc1)NC(=O)[C@H](CC(=O)O)NC(=O)[C@H](CC(C)C)NC(=O)[C@H](CO)NC(C)=O)[C@@H](C)CC)C(C)C)[C@@H](C)O)C(=O)N[C@@H](CCCCN)C(=O)N[C@H](C(=O)N[C@@H](CC(C)C)C(=O)N[C@@H](CC(N)=O)C(=O)N[C@@H](CCC(N)=O)C(=O)N[C@@H](CO)C(=O)N[C@@H](Cc1ccc(O)cc1)C(=O)N[C@H](C(=O)N[C@@H](CC(N)=O)C(=O)N[C@@H](CC(C)C)C(=O)N[C@@H](CCCCN)C(=O)N[C@@H](CC(=O)O)C(=O)N[C@H](C(=O)NCCOCCOCCOCCOCCOCCOCCOCCOCCC(=O)N[C@@H](CCCCNC(=O)CCC(=O)O[C@H]1CC[C@@]2(C)C(=CC[C@H]3[C@@H]4CC[C@H]([C@H](C)CCCC(C)C)[C@@]4(C)CC[C@@H]32)C1)C(N)=O)[C@@H](C)CC)[C@@H](C)CC)C(C)C [OC43-LP] | 63 °C
